Source: article doi:10.1101/318345v1, “Three enzymes and one substrate; regulation of flux through the glyoxylate shunt in the opportunistic pathogen, Pseudomonas aeruginosa” (biorxiv, 2018)

Columns and labels:
ICL = target: T1, ICL (Pseudomonas aeruginosa, UniProt Q9I0K4); experiment: ICL activity, spectrophotometric; type: biochemical; conditions: for Ki': uncompetitive, inhibitor at 1 mM, 37 °C, substrate isocitrate
T1 construct: gene PA2634; full length, 531 residues, 59 kDa; His6-MBP fusion from E. coli DH5alpha, tag cleaved with Factor Xa; tetramer
T1 sequence (Q9I0K4 1-531): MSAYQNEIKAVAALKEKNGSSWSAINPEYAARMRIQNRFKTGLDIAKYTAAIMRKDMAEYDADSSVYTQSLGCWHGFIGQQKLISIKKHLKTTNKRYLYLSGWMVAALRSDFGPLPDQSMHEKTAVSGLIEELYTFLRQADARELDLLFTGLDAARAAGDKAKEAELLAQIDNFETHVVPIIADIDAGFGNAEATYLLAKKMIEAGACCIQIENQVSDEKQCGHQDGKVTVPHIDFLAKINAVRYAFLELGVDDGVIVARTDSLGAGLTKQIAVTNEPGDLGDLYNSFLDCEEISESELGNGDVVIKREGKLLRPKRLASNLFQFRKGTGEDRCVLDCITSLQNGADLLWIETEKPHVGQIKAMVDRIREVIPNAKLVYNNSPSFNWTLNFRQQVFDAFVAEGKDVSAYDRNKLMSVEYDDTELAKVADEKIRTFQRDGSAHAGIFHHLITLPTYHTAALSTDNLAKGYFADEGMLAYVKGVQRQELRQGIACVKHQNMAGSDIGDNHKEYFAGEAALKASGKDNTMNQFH
Description: ICL activity, spectrophotometric on ICL

AceKPA = target: T2, AceKPA (Pseudomonas aeruginosa, UniProt Q9I3W8); experiment: AceK phosphatase coupled to ICD reactivation; type: biochemical; conditions: activator of phosphatase at 5 mM; ICD from P. aeruginosa as protein substrate; 1 mM ATP, 2 mM MgCl2, pH 7.0, 37 °C
T2 construct: gene aceK; His6-tagged from pET-19m, tag cleaved with TEV protease
T2 sequence (Q9I3W8 1-577): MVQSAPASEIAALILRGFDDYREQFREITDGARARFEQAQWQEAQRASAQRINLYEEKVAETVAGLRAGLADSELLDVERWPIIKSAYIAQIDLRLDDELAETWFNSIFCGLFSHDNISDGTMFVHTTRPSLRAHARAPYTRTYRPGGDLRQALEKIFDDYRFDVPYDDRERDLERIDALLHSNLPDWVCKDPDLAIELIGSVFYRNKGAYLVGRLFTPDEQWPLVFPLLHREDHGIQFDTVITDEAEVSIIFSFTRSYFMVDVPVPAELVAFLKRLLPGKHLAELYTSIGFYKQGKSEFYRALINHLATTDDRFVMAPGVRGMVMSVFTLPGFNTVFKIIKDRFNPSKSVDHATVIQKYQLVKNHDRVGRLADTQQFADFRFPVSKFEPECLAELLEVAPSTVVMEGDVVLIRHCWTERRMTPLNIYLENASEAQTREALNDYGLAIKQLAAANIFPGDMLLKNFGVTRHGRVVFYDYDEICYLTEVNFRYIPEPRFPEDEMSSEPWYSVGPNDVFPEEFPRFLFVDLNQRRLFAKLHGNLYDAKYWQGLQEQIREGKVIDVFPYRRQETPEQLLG
T2 sequence (Q9I0L5 1-418 partner): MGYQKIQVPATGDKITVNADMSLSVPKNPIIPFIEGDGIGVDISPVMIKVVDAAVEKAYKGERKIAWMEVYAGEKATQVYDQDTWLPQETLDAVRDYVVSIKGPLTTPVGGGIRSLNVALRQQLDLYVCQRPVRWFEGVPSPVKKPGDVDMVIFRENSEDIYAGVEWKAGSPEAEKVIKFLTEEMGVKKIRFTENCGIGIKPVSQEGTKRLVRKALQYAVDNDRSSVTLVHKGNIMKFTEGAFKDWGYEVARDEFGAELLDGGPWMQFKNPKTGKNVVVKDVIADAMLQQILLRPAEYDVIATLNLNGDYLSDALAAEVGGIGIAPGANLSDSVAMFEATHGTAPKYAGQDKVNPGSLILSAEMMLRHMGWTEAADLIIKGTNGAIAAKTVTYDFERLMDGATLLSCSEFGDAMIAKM

IDH [1] = target: T3, IDH (Pseudomonas aeruginosa, UniProt Q9I0L4); experiment: isocitrate dehydrogenase activity, NADPH at […] nm; type: biochemical; conditions: activator at 1 mM, V-type allosteric; 5 mM MgCl2, pH 7.5, 37 °C
T3 construct: full length, 82 kDa; His6-MBP fusion from E. coli DH5alpha, tag cleaved with Factor Xa
T3 sequence (Q9I0L4 1-741): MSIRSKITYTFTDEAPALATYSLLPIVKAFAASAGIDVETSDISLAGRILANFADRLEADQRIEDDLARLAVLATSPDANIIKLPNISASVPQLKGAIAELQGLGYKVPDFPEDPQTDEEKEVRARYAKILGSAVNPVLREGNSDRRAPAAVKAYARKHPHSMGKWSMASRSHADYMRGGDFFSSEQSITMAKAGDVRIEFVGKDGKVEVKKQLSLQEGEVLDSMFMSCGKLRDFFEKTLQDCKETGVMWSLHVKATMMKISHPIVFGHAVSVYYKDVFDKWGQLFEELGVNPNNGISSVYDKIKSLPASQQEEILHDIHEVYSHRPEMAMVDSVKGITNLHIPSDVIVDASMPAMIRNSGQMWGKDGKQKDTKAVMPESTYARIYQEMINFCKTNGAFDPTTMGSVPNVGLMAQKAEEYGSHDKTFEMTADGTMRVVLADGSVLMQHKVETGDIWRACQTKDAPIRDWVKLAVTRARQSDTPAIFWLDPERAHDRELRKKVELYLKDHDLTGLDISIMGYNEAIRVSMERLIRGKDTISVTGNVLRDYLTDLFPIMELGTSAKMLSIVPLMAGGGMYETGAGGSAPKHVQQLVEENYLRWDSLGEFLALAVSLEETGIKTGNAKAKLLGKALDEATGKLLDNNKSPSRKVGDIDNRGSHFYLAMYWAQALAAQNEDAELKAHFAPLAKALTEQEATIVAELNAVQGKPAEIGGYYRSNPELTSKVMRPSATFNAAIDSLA

IDH [2] = target: T3, IDH; experiment: X-ray crystal structure, […] Å; type: binding; conditions: chain A, with NADP
ICD = target: T4, ICD (Pseudomonas aeruginosa, UniProt Q9I0L5); experiment: isocitrate dehydrogenase activity, NADPH at […] nm; type: biochemical
T4 construct: full length, 45 kDa; His6-MBP fusion from E. coli DH5alpha, tag cleaved with Factor Xa; dimer
T4 sequence (Q9I0L5 1-418): T2 sequence (Q9I0L5 1-418 partner)

[3] = text b11 prints a different value (0.6 mM)

O=C(O)CC(O)(CC(=O)O)C(=O)O [citrate]
Ki (ICL): 15800 µM

CC(C)(COP(=O)(O)OP(=O)(O)OC[C@H]1O[C@@H](n2cnc3c(N)ncnc32)[C@H](O)[C@@H]1OP(=O)(O)O)[C@@H](O)C(=O)NCCC(=O)NCCS [coenzyme A]
Ki (ICL): 3900 µM

O=C(O)/C=C/C(=O)O [fumarate]
AceK phosphatase coupled to ICD reactivation (AceKPA): fumarate was the most potent activator of the phosphatase in AceKPA

O=C(O)CO [glycolic acid]
Ki (ICL): 1800 µM

C=C(CC(=O)O)C(=O)O [itaconic acid]
Ki' (ICL; text b11 prints a different value (0.5 mM)): 900 µM

O=C(O)C[C@H](O)C(=O)O [malic acid]
Ki (ICL): 4400 µM

O=C(O)CC(=O)O [malonic acid]
Ki' (ICL): 2900 µM

O=C(O)CC[N+](=O)[O-] [nitropropionic acid]
Ki' (ICL; [3]): 1000 µM

O=C(O)CC(=O)C(=O)O [oxaloacetate]
Ki (ICL): 1400 µM

CC(=O)C(=O)O [pyruvate]
isocitrate dehydrogenase activity, NADPH at 340 nm (IDH [1]): pyruvate and oxaloacetate were far more potent regulators
Ki (ICL): 1700 µM

O=C(O)CCC(=O)O [succinate]
Ki' (ICL; [3]): 900 µM

O=C(O)CCC(=O)C(=O)O [α-ketoglutarate]
X-ray crystal structure, 2.7 Å (IDH [2]): (designated chain A) contained bound α-ketoglutarate and NADP
Ki (ICD): 666 µM
